Assay results published in ChEMBL document CHEMBL5096200, “A short survey of dengue protease inhibitor development in the past 6 years (2015-2020) with an emphasis on similarities between DENV and SARS-CoV-2 proteases” (Bioorg Med Chem, 2021).
Converted amounts (≈) assume the structure as drawn.

How the values were obtained:
[1] = Antiviral activity against DENV2 infected in african green monkey Vero cells assessed as reduction of viral titre by viral plaque reduction assay; assay type: functional, cell-based, dengue virus type 2; details: Dengue virus
[2] = Antiviral activity against Dengue virus 3 infected in african green monkey Vero cells assessed as reduction in viral titer preincubated for 1 hour with cells followed by viral infection and measured upto 7 days by plague assay relative to control; assay type: functional, dengue virus type 3; details: time <= 7 day
[3] = molecular target: T1, Genome polyprotein (dengue virus type 2, UniProt P29990); test: Inhibition of DENV-2 NS2bNS3 pro
T1 sequence (P29990 1346-1475 limits assumed): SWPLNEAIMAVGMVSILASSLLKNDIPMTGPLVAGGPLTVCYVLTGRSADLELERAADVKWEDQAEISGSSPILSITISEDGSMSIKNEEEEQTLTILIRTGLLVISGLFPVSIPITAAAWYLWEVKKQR
T1 sequence (P29990 1476-2093 limits assumed): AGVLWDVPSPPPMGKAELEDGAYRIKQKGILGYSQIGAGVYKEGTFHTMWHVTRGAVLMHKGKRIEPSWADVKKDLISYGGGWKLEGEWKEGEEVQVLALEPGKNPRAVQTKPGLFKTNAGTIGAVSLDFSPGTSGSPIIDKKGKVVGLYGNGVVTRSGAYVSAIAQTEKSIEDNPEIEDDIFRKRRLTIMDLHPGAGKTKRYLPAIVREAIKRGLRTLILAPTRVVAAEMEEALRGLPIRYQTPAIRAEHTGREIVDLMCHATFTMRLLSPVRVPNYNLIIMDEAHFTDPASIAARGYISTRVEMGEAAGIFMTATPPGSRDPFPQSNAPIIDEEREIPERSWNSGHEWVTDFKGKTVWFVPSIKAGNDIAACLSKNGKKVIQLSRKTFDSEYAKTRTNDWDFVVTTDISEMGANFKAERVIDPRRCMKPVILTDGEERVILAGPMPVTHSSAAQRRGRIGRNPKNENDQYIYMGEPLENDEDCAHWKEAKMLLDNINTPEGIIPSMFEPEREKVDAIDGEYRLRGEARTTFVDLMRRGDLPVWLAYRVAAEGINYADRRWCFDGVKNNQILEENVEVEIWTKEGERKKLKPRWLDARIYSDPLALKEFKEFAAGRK

[4] = Antiviral activity against Dengue virus 4 infected in african green monkey Vero cells assessed as reduction in viral titer preincubated for 1 hour with cells followed by viral infection and measured upto 7 days by plague assay relative to control; assay type: functional, dengue virus type 4; details: time <= 7 day
[5] = system: dengue virus type 1; test: Antiviral activity against Dengue virus 1 infected in african green monkey Vero cells assessed as reduction in viral titer preincubated for 1 hour with cells followed by viral infection and measured upto 7 days by plague assay relative to control; assay type: functional; details: time <= 7 day
[6] = Antiviral activity against Dengue virus 2 infected in african green monkey Vero cells assessed as reduction in viral titer preincubated for 1 hour with cells followed by viral infection and measured upto 7 days by plague assay relative to control; assay type: functional, dengue virus type 2; details: time <= 7 day
[7] = system: dengue virus type 2; test: Antiviral activity against DENV2 (TR1751) infected in BHK-21 cells assessed as reduction in virus titre at 100 uM by focus forming assay relative to control; assay type: functional; parameters: scale not given: the % may be the effect or the level left
[8] = system: dengue virus type 2; test: Antiviral activity against DENV2 (TR1751) infected in BHK-21 cells assessed as reduction in virus titre at 1000 uM by focus forming assay relative to control; assay type: functional; parameters: scale not given: the % may be the effect or the level left
[9] = molecular target: T1, Genome polyprotein; test: Inhibition of DENV NS2B/NS3 protease transfected in human Huh-7 cells using 7-amino-4-methylcoumarin (AMC) fluorophore-linked peptide substrate Boc-GRR-AMC as substrate by fluoroscence based assay; assay type: cell-based
[10] = Inhibition of DENV2 pro infected in human Huh-7 cells using 7-amino-4-methylcoumarin (AMC) fluorophore-linked Boc-GRR-AMC as substrate incubated for 30 mins; assay type: cell-based, dengue virus type 2; details: Dengue virus, Huh-7, 0.5 h
[11] = system: dengue virus type 2; test: Antiviral activity against DENV-2 infected in human Huh-7 cells assessed as reduction in viral RNA treated for 3 days by qRT-PCR analysis; assay type: functional, organism-based; details: Huh-7, 72 h
[12] = system: dengue virus type 2; test: Antiviral activity against DENV2 infected in human Huh-7 cells using Boc-GRR-AMC as substrate incubated for 30 mins by fluorescence spectroscopy assay; assay type: functional, organism-based; details: Huh-7, 0.5 h
[13] = system: dengue virus type 2; test: Antiviral activity against DENV2 assessed as inhibition of viral replication; assay type: functional, organism-based
[14] = Cytotoxicty against BHK-21 cells assessed as reduction in cell viability; assay type: toxicity, cell-based; details: Mesocricetus auratus (golden hamster)
[15] = molecular target: T1, Genome polyprotein; test: Inhibition of DENV NS2B/NS3 pro
[16] = Antiviral activity against DENV2 infected in BHK-21 cells assessed as inhibition of viral replication; assay type: functional, cell-based, dengue virus type 2; details: Dengue virus
[17] = Antiviral activity against DENV2 infected in human HepG2 cells measured after 48 hrs by plaque assay; assay type: functional, cell-based, dengue virus type 2; details: Dengue virus, HepG2, 48 h
[18] = molecular target: T1, Genome polyprotein; test: Inhibition of DENV2 NS2B-NS3 protease using Boc-Gly-Arg-Arg-MCA as substrate by fluorescence assay
[19] = molecular target: T1, Genome polyprotein; test: Inhibition of DENV-2 NS2B/NS3 protease expressed in Escherichia coli XL1 using Boc-GRR-MCA as substrate preincubated for 10 mins followed by substrate addition and measured after 60 mins
[20] = Antiviral activity against DENV-2 NGC infected in african green monkey Vero B cells assessed as reduction in virus induced cytopathic effect; assay type: functional, cell-based, dengue virus type 2; details: Dengue virus
[21] = Antiviral activity against DENV2 infected in human K562 cells assessed as log reduction of viral titre measured at 1 uM measured after 72 hrs; assay type: functional, dengue virus type 2
[22] = system: dengue virus type 2; test: Antiviral activity against DENV2; assay type: functional, organism-based
[23] = Antiviral activity against DENV2 infected in human Huh-7 cells assessed as log reduction of viral titre measured at 1 uM measured after 72 hrs; assay type: functional, dengue virus type 2
[24] = Permeability of the compound at pH 7.4; assay type: ADME; details: PAMPA, read-out: permeability
[25] = system: Dengue virus; test: Antiviral activity against Dengue virus assessed as reduction in viral titer at 50 uM preincubated for 1 hr measured after 24 hrs post infection by plaque assay relative to control; assay type: functional; parameters: scale not given: the % may be the effect or the level left; details: time 25 hrs
[26] = system: dengue virus type 4; test: Antiviral activity against DENV4 infected in human Huh-7 cells assessed as inhibition of viral replication measured after 72 hrs post infection by qRT-PCR analysis; assay type: functional, organism-based; details: Huh-7, 72 h
[27] = system: dengue virus type 1; test: Antiviral activity against DENV1 infected in human Huh-7 cells assessed as inhibition of viral replication measured after 72 hrs post infection by qRT-PCR analysis; assay type: functional, organism-based; details: Huh-7, 72 h
[28] = system: dengue virus type 3; test: Antiviral activity against DENV3 infected in human Huh-7 cells assessed as inhibition of viral replication measured after 72 hrs post infection by qRT-PCR analysis; assay type: functional, organism-based; details: Huh-7, 72 h
[29] = system: dengue virus type 2; test: Antiviral activity against DENV2 infected in human Huh-7 cells assessed as inhibition of viral replication measured after 72 hrs post infection by qRT-PCR analysis; assay type: functional, organism-based; details: Huh-7, 72 h
[30] = Inhibition of DENV2 protease infected in human HeLa cells; assay type: cell-based, dengue virus type 2; details: Dengue virus

SMILES: O=C(O)c1ccccc1-c1c2cc(I)c(=O)c(I)c-2oc2c(I)c(O)c(I)cc12
- EC50 [1]: 1.2 µM

SMILES: N#C/C(=C/c1ccc(-c2ccc(C(=O)O)cc2)s1)c1nc2cc(Cl)ccc2[nH]1
- inhibition (INH) [2]: 75%
- IC50 [3]: 5.95 µM
- inhibition (INH) [4]: 73%
- inhibition (INH) [5]: 50%
- inhibition (INH) [6]: 83%

SMILES: Oc1cc(O)c2c(c1)O[C@H](c1ccc(O)c(O)c1)[C@H](O)C2 [(-)-EPICATECHIN]
- Activity [7]: 77.7%
- Activity [8]: 66.2%

SMILES: COC(=O)c1[nH]c2ccc(Cl)cc2c1C(=O)c1cc(OC)c(OC)c(OC)c1
- EC50 [9]: 4.7 µM
- EC50 [10]: 6.7 µM
- EC50 [11]: 4.6 µM
- EC50 [12]: 4.6 µM
- EC50 [13]: 4.6 µM

SMILES: Cc1cc(O)c(S(=O)(=O)O)cc1Cc1cc(S(=O)(=O)O)c(O)c(Cc2cc(S(=O)(=O)O)c(O)cc2C)c1C
- IC50 [14]: 459 µg/mL (≈ 781 µM)
- IC50 [15]: 0.815 µM
- IC50 [16]: 4.99 µg/mL (≈ 8.48 µM)

SMILES: CCCCC1C(C(=O)OCC)C(c2ccccc2)CCN1C(=O)OC(C)(C)C (stereo unspecified)
- EC50 [17]: 3.2 µM
- IC50 [18]: 214 µM

SMILES: CCCCC(=O)Nc1nc(SC(=O)CCCC)c2nc[nH]c2n1
- IC50 [19]: 0.38 µM

SMILES: Cc1c(O)cccc1C(=O)N[C@@H](CSc1ccccc1)[C@H](O)CN1C[C@H]2CCCC[C@H]2C[C@H]1C(=O)NC(C)(C)C
- EC50 [20]: 3.5 µM

SMILES: O=C1c2c(O)ccc([N+](=O)[O-])c2C(=O)c2c([N+](=O)[O-])ccc(O)c21
- log(activity) [21]: >1 PFU/ml
- EC50 [22]: 4.2 µM
- log(activity) [23]: >1 PFU/ml
- Papp [24]: 4.45 ×10⁻⁶ cm/s

SMILES: C[C@@H](CC[C@H](O)[C@](C)(O)CO)[C@@H]1CC[C@]2(C)C3=CC[C@@H]4C(C)(C)C(=O)CC[C@@]4(C)C3=CC[C@@]12C
- Activity [25]: 40%

SMILES: CC(=O)O[C@H]1CC(C)(C)C(=C=C/C(C)=C/C=C/C=C/C=C(C)/C=C2C=C(/C=C/[C@@]34O[C@]3(C)C[C@@H](O)CC4(C)C)C(=O)O/2)[C@](C)(O)C1
- EC50 [26]: 5.84 µM
- EC50 [27]: 5.84 µM
- EC50 [28]: 5.84 µM
- EC50 [13]: 4.5 µM
- EC50 [29]: 4.5 µM

SMILES: CCCCCC(=O)N[C@H](C(=O)NCc1ccc(NC(=N)N)cc1)c1ccc(OCc2ccccc2)cc1
- EC50 [30]: 0.49 µM
